Test results from patent US4684664A, “Derivatives of β-(4-isocyano-1,2,3,4-diepoxycyclopentyl) acrylic acid” (Kureha Kagaku Kogyo Kabushiki Kaisha, priority 1984, dated 1987).
In brackets after ≈: the same amount, converted by molar mass.

How the values were obtained:
[1] = test system: Streptococcus faecium IFO 3826; assay: Antibacterial activity, agar-dilution MIC, organism No. 27; assay type: cell-based; conditions: Enterococcus faecium, IFO3826; Organism No. 27, bouillon-agar; read-out: Minimum Inhibitory Concentration
Outline: (§1)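 Endpoint: MIC in μg/ml of culture medium. Method: agar dilution. Medium: bouillon agar.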

[2] = test system: Bacillus subtilis ATCC 6633; assay: Antibacterial activity, agar-dilution MIC, organism No. 14; assay type: cell-based; conditions: Bacillus subtilis, ATCC6633; Organism No. 14, bouillon-agar; read-out: Minimum Inhibitory Concentration
Outline: as §1

[3] = test system: Escherichia coli K12 C600 IAM 1264; assay: Antibacterial activity, agar-dilution MIC, organism No. 6; assay type: cell-based; conditions: Escherichia coli, IAM1264; Organism No. 6, bouillon-agar; read-out: Minimum Inhibitory Concentration
Outline: as §1

[4] = test system: Klebsiella pneumoniae PCI-602; assay: Antibacterial activity, agar-dilution MIC, organism No. 7; assay type: cell-based; conditions: Klebsiella pneumoniae, PCI602; Organism No. 7, bouillon-agar; read-out: Minimum Inhibitory Concentration
Outline: as §1

[5] = test system: Salmonella shottmuelleri 8006; assay: Antibacterial activity, agar-dilution MIC, organism No. 11; assay type: cell-based; conditions: Salmonella, 8006; Organism No. 11, bouillon-agar; read-out: Minimum Inhibitory Concentration
Outline: as §1

Proteus vulgaris HX-19 = assay: Antibacterial activity, agar-dilution MIC, organism No. 21; assay type: cell-based; conditions: Proteus vulgaris, HX19; Organism No. 21, bouillon-agar; read-out: Minimum Inhibitory Concentration
Outline: as §1

[6] = Stability in a non-solvent state; assay type: physicochemical
[7] = test system: Candida albicans IAM 4905; assay: Antifungal activity, agar-dilution MIC, organism No. 29; assay type: cell-based; conditions: Candida albicans, IAM4905; Organism No. 29, bouillon-agar; read-out: Minimum Inhibitory Concentration
Outline: as §1

[8] = test system: Pseudomonas aeruginosa IFO 3445; assay: Antibacterial activity, agar-dilution MIC, organism No. 15; assay type: cell-based; conditions: Pseudomonas aeruginosa, IFO3445; Organism No. 15, bouillon-agar; read-out: Minimum Inhibitory Concentration
Outline: as §1

[9] = test system: Enterobacter aerogenes ATCC 13048; assay: Antibacterial activity, agar-dilution MIC, organism No. 23; assay type: cell-based; conditions: Klebsiella aerogenes, ATCC13048; Organism No. 23, bouillon-agar; read-out: Minimum Inhibitory Concentration
Outline: as §1

[10] = test system: Escherichia coli NIHJ-JC-2; assay: Antibacterial activity, agar-dilution MIC, organism No. 5; assay type: cell-based; conditions: Escherichia coli, NIHJJC2; Organism No. 5, bouillon-agar; read-out: Minimum Inhibitory Concentration
Outline: as §1

[11] = test system: Serratia marcescens IAM 1184; assay: Antibacterial activity, agar-dilution MIC, organism No. 13; assay type: cell-based; conditions: Serratia marcescens, IAM1184; Organism No. 13, bouillon-agar; read-out: Minimum Inhibitory Concentration
Outline: as §1

[12] = test system: Mycoplasma pneumoniae IID817; assay: Antimycoplasmal activity, MIC by phenol red colour change, organism No. 28; assay type: cell-based; conditions: Mycoplasma, IID817; Organism No. 28, PPLO broth + 1% glucose, 37° C.; read-out: Minimum Inhibitory Concentration (MIC)
Method: Mycoplasma pneumoniae IID817 was used as the test microorganism in a culture medium prepared by adding 1% of glucose to "PPLO broth (manufactured by Difco Co.) liquid culture medium" at 37° C. with phenol red as an indicator, thereby culturing the test microorganism.

[13] = test system: Pseudomonas aeruginosa PAO 1; assay: Antibacterial activity, agar-dilution MIC, organism No. 17; assay type: cell-based; conditions: Pseudomonas aeruginosa, PAO1; Organism No. 17, bouillon-agar; read-out: Minimum Inhibitory Concentration
Outline: as §1

[14] = test system: Pseudomonas aeruginosa NCTC 10490; assay: Antibacterial activity, agar-dilution MIC, organism No. 16; assay type: cell-based; conditions: Pseudomonas aeruginosa, NCTC10490; Organism No. 16, bouillon-agar; read-out: Minimum Inhibitory Concentration
Outline: as §1

Enterobacter cloacae 963 = assay: Antibacterial activity, agar-dilution MIC, organism No. 24; assay type: cell-based; conditions: Enterobacter cloacae, 963; Organism No. 24, bouillon-agar; read-out: Minimum Inhibitory Concentration
Outline: as §1

[15] = test system: Micrococcus luteus ATCC 9341; assay: Antibacterial activity, agar-dilution MIC, organism No. 25; assay type: cell-based; conditions: Micrococcus luteus, ATCC9341; Organism No. 25, bouillon-agar; read-out: Minimum Inhibitory Concentration
Outline: as §1

[16] = test system: Salmonella paratyphi-A 1015; assay: Antibacterial activity, agar-dilution MIC, organism No. 10; assay type: cell-based; conditions: Salmonella enterica, PARATYPHI, read-out: Minimum Inhibitory Concentration
Outline: as §1

[17] = test system: Staphylococcus aureus FDA 209PJc-1; assay: Antibacterial activity, agar-dilution MIC, organism No. 1; assay type: cell-based; conditions: Staphylococcus aureus, FDA209PJC1; Organism No. 1, bouillon-agar; read-out: Minimum Inhibitory Concentration
Outline: as §1

[18] = test system: Streptococcus pyogenes Cook; assay: Antibacterial activity, agar-dilution MIC, organism No. 4; assay type: cell-based; conditions: Streptococcus pyogenes; Organism No. 4, bouillon-agar; read-out: Minimum Inhibitory Concentration
Outline: as §1

[19] = test system: Salmonella enteritidis G 14; assay: Antibacterial activity, agar-dilution MIC, organism No. 12; assay type: cell-based; conditions: Salmonella enterica, ENTERITIDIS; Organism No. 12, bouillon-agar; read-out: Minimum Inhibitory Concentration
Outline: as §1

Proteus vulgaris OX-19 = assay: Antibacterial activity, agar-dilution MIC, organism No. 20; assay type: cell-based; conditions: Proteus vulgaris, OX19; Organism No. 20, bouillon-agar; read-out: Minimum Inhibitory Concentration
Outline: as §1

[20] = test system: Staphylococcus aureus MS 353; assay: Antibacterial activity, agar-dilution MIC, organism No. 3; assay type: cell-based; conditions: Staphylococcus aureus, MS353; Organism No. 3, bouillon-agar; read-out: Minimum Inhibitory Concentration
Outline: as §1

[21] = test system: Aspergillus niger IFO 6342; assay: Antifungal activity, agar-dilution MIC, organism No. 30; assay type: cell-based; conditions: Aspergillus niger, IFO6342; Organism No. 30, bouillon-agar; read-out: Minimum Inhibitory Concentration
Outline: as §1

[22] = test system: Salmonella typhimurium IID 971; assay: Antibacterial activity, agar-dilution MIC, organism No. 8; assay type: cell-based; conditions: Salmonella enterica; Organism No. 8, bouillon-agar; read-out: Minimum Inhibitory Concentration
Outline: as §1

Salmonella typhi 901 = assay: Antibacterial activity, agar-dilution MIC, organism No. 9; assay type: cell-based; conditions: Salmonella enterica, TYPHI, read-out: Minimum Inhibitory Concentration
Outline: as §1

[23] = test system: Proteus mirabilis IFO 3849; assay: Antibacterial activity, agar-dilution MIC, organism No. 19; assay type: cell-based; conditions: Proteus mirabilis, IFO3849; Organism No. 19, bouillon-agar; read-out: Minimum Inhibitory Concentration
Outline: as §1

[24] = test system: Proteus morganii IFO 3848; assay: Antibacterial activity, agar-dilution MIC, organism No. 18; assay type: cell-based; conditions: Morganella morganii, IFO3848; Organism No. 18, bouillon-agar; read-out: Minimum Inhibitory Concentration
Outline: as §1

[25] = test system: Staphylococcus aureus Terajima; assay: Antibacterial activity, agar-dilution MIC, organism No. 2; assay type: cell-based; conditions: Staphylococcus aureus; Organism No. 2, bouillon-agar; read-out: Minimum Inhibitory Concentration
Outline: as §1

[26] = test system: Proteus rettgeri IFO 3850; assay: Antibacterial activity, agar-dilution MIC, organism No. 22; assay type: cell-based; conditions: Providencia rettgeri, IFO3850; Organism No. 22, bouillon-agar; read-out: Minimum Inhibitory Concentration
Outline: as §1

[27] = test system: Streptococcus pyogenes IFO 3340; assay: Antibacterial activity, agar-dilution MIC, organism No. 26; assay type: cell-based; conditions: Streptococcus pyogenes, IFO3340; Organism No. 26, bouillon-agar; read-out: Minimum Inhibitory Concentration
Outline: as §1

SMILES: [C-]#[N+]C12CC3(/C=C/C(=O)OCC)OC3C1O2 (stereo not drawn) [Compound No. 2, ethyl β-substituted acrylate]
- MIC [1]: 12.5 µg/mL (≈ 56.5 µM)
- MIC [2]: 50 µg/mL (≈ 226 µM)
- MIC [3]: 25 µg/mL (≈ 113 µM)
- MIC [4]: 6.25 µg/mL (≈ 28.3 µM)
- MIC [5]: 6.25 µg/mL (≈ 28.3 µM)
- MIC (Proteus vulgaris HX-19): 0.2 µg/mL (≈ 0.904 µM)
- stability (in words) [6]: decomposing and colouring tendency in a non-solvent state
- MIC [7]: 3.13 µg/mL (≈ 14.1 µM)
- MIC [8]: > 200 µg/mL
- MIC [9]: > 200 µg/mL
- MIC [10]: 50 µg/mL (≈ 226 µM)
- MIC [11]: > 200 µg/mL
- MIC [12]: < 0.2 µg/mL
- MIC [13]: > 200 µg/mL
- MIC [14]: > 200 µg/mL
- MIC (Enterobacter cloacae 963): > 200 µg/mL
- MIC [15]: 1.56 µg/mL (≈ 7.05 µM)
- MIC [16]: 6.25 µg/mL (≈ 28.3 µM)
- MIC [17]: 12.5 µg/mL (≈ 56.5 µM)
- MIC [18]: > 200 µg/mL
- MIC [19]: 6.25 µg/mL (≈ 28.3 µM)
- MIC (Proteus vulgaris OX-19): 6.25 µg/mL (≈ 28.3 µM)
- MIC [20]: 12.5 µg/mL (≈ 56.5 µM)
- MIC [21]: 12.5 µg/mL (≈ 56.5 µM)
- MIC [22]: 25 µg/mL (≈ 113 µM)
- MIC (Salmonella typhi 901): 6.25 µg/mL (≈ 28.3 µM)
- MIC [23]: 25 µg/mL (≈ 113 µM)
- MIC [24]: 6.25 µg/mL (≈ 28.3 µM)
- MIC [25]: 12.5 µg/mL (≈ 56.5 µM)
- MIC [26]: > 200 µg/mL
- MIC [27]: 100 µg/mL (≈ 452 µM)
